Reference: patent US9586986B2, “Substituted 7-deazapurine ribonucleosides for therapeutic uses” (Institute of Organic Chemistry and Biochemistry ASCR, v.v.i., priority 2014, dated 2017)

Columns and labels:
Assay type in all cases: cell-based
CCRF-CEM = assay: Cytostatic/cytotoxic MTT assay, CCRF-CEM; conditions: Homo sapiens, 72 h incubation, read-out: MTT, IC50 CCRF-CEM
Description: (§1) Unless otherwise stated, all cells were purchased from the […] (ATCC). The CCRF-CEM line is derived from T lymphoblastic leukemia, evincing high chemosenzitivity, K562 represent cells from a […] patient sample with bcr-abl translocation, HCT116 is colorectal tumor cell line and its p53 gene knock-down counterpart (HCT116p53−/−, Horizon Discovery, UK) is a model of human cancers with p53 inactivation frequently associated with poor prognosis, A549 cell line is lung adenocarcinoma. The daunorubicin resistant subline of CCRF-CEM cells (CEM-DNR bulk) and paclitaxel resistant subline K562-TAX were selected in our laboratory by cultivation of maternal cell lines in increasing concentrations of daunorubicine or paclitaxel, respectively. The CEM-DNR cells overexpress mrp-1 and mdr-1 genes, while K562-TAX cells overexpress mdr-1 only. Both proteins belong to the family of ABC transporters and are involved in the primary and/or acquired multidrug resistance phenomenon (ref.: Gottesman, M. M.; Fojo, T.; Bates, S. E. Multidrug resistance in cancer: role of ATP-dependent transporters. Nat. Rev. Cancer. 2002, 2, 48-58. (b) Noskova, V.; Dzubak, P.; Kuzmina, G.; Ludkova, A.; Stehlik, D.; Trojanec, R.; Janostakova, A.; Korinkova, G.; Mihal, V.; Hajduch, M. In vitro chemoresistance profile and expression/function of MDR associated proteins in resistant cell lines derived from CCRF-CEM, K562, A549 and MDA MB 231 parental cells. Neoplasma 2002, 49, 418-425). Non-malignant MRC-5 and BJ cells, derived from normal human fibroblasts, were used as controls. The cells were maintained in Nunc/Corning 80 cm^2 plastic tissue culture flasks and cultured in cell culture medium (DMEM/RPMI 1640 with 5 g/L glucose, 2 mM glutamine, 100 U/mL penicillin, 100 µg/mL streptomycin, 10% fetal calf serum, and NaHCO3). Cell suspensions were prepared and diluted according to the particular cell type and the expected target cell density (25,000-30,000 cells/well based on cell growth characteristics). Cells were added by pipette (80 L) into 96-well microtiter plates. Inoculates were allowed a pre-incubation period of 24 h at 37° C. and 5% CO2 for stabilization. Four-fold dilutions, in 20-L aliquots, of the intended test concentration were added to the microtiter plate walls at time zero. All test compound concentrations were examined in duplicate. Incubation of the cells with the test compounds lasted for 72 h at 37° C., in a 5% CO2 atmosphere at 100% humidity. At the end of the incubation period, the cells were assayed using MTT. Aliquots (10 L) of the MTT stock solution (5 mg/ml) were pipetted into each well and incubated for another 1-4 h. After this incubation period the formazan produced was dissolved by addition of 100 µL/well of 10% aq SDS (pH 5.5), followed by a further incubation at 37° C. overnight. The optical density was measured at 540 nm. The IC50 value, the drug concentration inhibiting the cell growth by 50%, was calculated from appropriate dose-response curves.
(§2) In vitro cytotoxic/cytostatic activity final nucleosides 1-5 was initially evaluated against […] cell lines derived from human solid tumors including lung (A549 cells) and colon (HCT116 and HCT116p53−/−) carcinomas, as well as leukemia cell lines (CCRF-CEM, CEM-DNR, K562 and K562-TAX) and, for comparison, non-malignant BJ and MRC-5 fibroblasts. Concentrations inhibiting the cell growth by 50% (IC50) were determined using a quantitative metabolic staining with 3-(4,5-dimethylthiazol-2-yl)-2,5-diphenyltetrazolium bromide (MTT) (ref.: Denizot, F.; Lang, R. Rapid colorimetric assay for cell growth and survival: Modifications to the tetrazolium dye procedure giving improved sensitivity and reliability. J. Immunol. Meth. 1986, 89, 271-277) following a 3-day treatment.

CEM-DNR-bulk = assay: Cytostatic/cytotoxic MTT assay, CEM-DNR-bulk; conditions: Homo sapiens; daunorubicin resistant subline, 72 h; read-out: MTT, IC50 CEM-DNR-bulk
Description: as §1, §2
(§3) Multidrug resistance is a major therapeutic problem in cancer chemotherapy. […]

K562-TAX = assay: Cytostatic/cytotoxic MTT assay, K562-TAX; conditions: Homo sapiens, paclitaxel resistant subline, 72 h, read-out: MTT, IC50 K562-TAX
Description: as §1, §2, §3

HCT116 = assay: Cytostatic/cytotoxic MTT assay, HCT116; conditions: Homo sapiens, HCT-116; 72 h incubation; read-out: MTT, IC50 HCT116
Description: as §1, §2, §3

HCT116p53-/- = assay: Cytostatic/cytotoxic MTT assay, HCT116p53-/-; conditions: Homo sapiens, HCT-116; 72 h incubation; read-out: MTT, IC50 HCT116 p53-/-
Description: as §1, §2, §3

MRC-5 = assay: Cytostatic/cytotoxic MTT assay, MRC-5 fibroblasts; conditions: Homo sapiens, MRC5; non-malignant fibroblasts, 72 h; read-out: MTT, IC50 MRC-5
Description: as §1, §2

HepG2 = assay: XTT cytotoxicity assay, HepG2; conditions: Homo sapiens, HepG2; 72 h incubation; read-out: XTT, IC50 HepG2
Description: HL-60, Hela S3 and HepG2 cell lines (ATCC) were grown in RPMI-1640 or DMEM medium supplemented with 10% fetal calf serum, […] of streptomycin, 200 U/mL of penicillin G and 4 mM glutamine in a humidified atmosphere containing 5% CO2 at 37° C. Sensitivity of these cell lines to the synthesized compounds was assessed with the use of XTT cell proliferation kit II (Roche Diagnostics GmbH, Mannheim, Germany) according to the manufacturer's instructions. Briefly, cells were seeded in a 96-well plate at a density of 10,000 cells per well (90 μL). After 24 h, 10 μL of the tested compounds were added to the culture media at desired concentration range and incubated for 72 h. After that 50 μL of the XTT solution was added (1 mg/mL XTT+0.383 mg/mL N-methyl dibenzopyrazine methyl sulfate). The absorbance was recorded at 495 nm following a 2 h-incubation with the dye. IC50 values were determined by non-linear regression method using GraphPad Prism version 5.00 for Windows (GraphPad Software, La Jolla, Calif., USA).

[1] = test system: Huh-7 cells harboring replicon 1B; assay: Cytotoxicity in replicon 1B cells; conditions: HCV subtype 1B replicon
Description: (§4) Compounds were also tested in Huh-7 cells harboring sub-genomic reporter replicons derived from HCV subtypes 1B and 2A (ref.: Stuyver, L. J.; Whitaker, T.; McBrayer, T. R.; Hernandez-Santiago, B. I.; Lostia, S.; Tharnish, P. M.; Ramesh, M.; Chu, C. K.; Jordan, R.; Shi, J. X.; Rachakonda, S.; Watanabe, K. A.; Otto, M. J.; Schinazi, R. F. Antimicrob. Agents Chemother. 2003, 47, 244-254).

[2] = test system: HCV subtype 2A replicon in Huh-7 cells; assay: HCV sub-genomic reporter replicon assay, subtype 2A; conditions: Hepatitis C virus; Huh-7 cells, HCV subtype 2A replicon; read-out: Replicon 2A EC50
Description: as §4

## CSc1ncnc2c1c(-c1ccccc1)cn2[C@@H]1O[C@H](CO)[C@@H](O)[C@H]1O [Compound 2e, 4-Methylsulfanyl-5-phenyl-7-(β-D-ribofuranosyl)-7H-pyrrolo[2,3-d]pyrimidine]
CCRF-CEM
  IC50: > 20 µM
CEM-DNR-bulk
  IC50: > 20 µM
K562-TAX
  IC50: > 20 µM
HCT116
  IC50: > 20 µM
HCT116p53-/-
  IC50: > 20 µM
MRC-5
  IC50: > 100 µM
HepG2
  IC50: > 20 µM
[1]
  CC50: > 44 µM
[2]
  EC50: > 44 µM

## CSc1ncnc2c1c(-c1cc3ccccc3o1)cn2[C@@H]1O[C@H](CO)[C@@H](O)[C@H]1O [Compound 2f, 5-(Benzofuran-2-yl)-4-methylsulfanyl-7-(β-D-ribofuranosyl)-7H-pyrrolo[2,3-d]pyrimidine]
CCRF-CEM
  IC50: > 20 µM
CEM-DNR-bulk
  IC50: > 20 µM
K562-TAX
  IC50: > 20 µM
HCT116
  IC50: > 20 µM
HCT116p53-/-
  IC50: > 20 µM
MRC-5
  IC50: 70.8 µM
HepG2
  IC50: > 20 µM
[1]
  CC50: > 44 µM
[2]
  EC50: 29.6 µM

## C#Cc1cn([C@@H]2O[C@H](CO)[C@@H](O)[C@H]2O)c2ncnc(SC)c12 [Compound 2g, 5-Ethynyl-4-methylsulfanyl-7-(β-D-ribofuranosyl)-7H-pyrrolo[2,3-d]pyrimidine]
CCRF-CEM
  IC50: > 20 µM
CEM-DNR-bulk
  IC50: 0.11 µM
K562-TAX
  IC50: 0.07 µM
HCT116
  IC50: 0.03 µM
HCT116p53-/-
  IC50: 0.09 µM
MRC-5
  IC50: > 100 µM
HepG2
  IC50: > 15 µM
[1]
  CC50: > 44 µM
[2]
  EC50: > 44 µM

## CSc1ncnc2c1c(I)cn2[C@@H]1O[C@H](CO)[C@@H](O)[C@H]1O [Compound 2h, 5-Iodo-4-methylsulfanyl-7-(β-D-ribofuranosyl)-7H-pyrrolo[2,3-d]pyrimidine]
CCRF-CEM
  IC50: > 20 µM
CEM-DNR-bulk
  IC50: > 20 µM
K562-TAX
  IC50: 7.73 µM
HCT116
  IC50: > 20 µM
HCT116p53-/-
  IC50: > 20 µM
MRC-5
  IC50: > 100 µM
HepG2
  IC50: > 20 µM
[1]
  CC50: > 44 µM
[2]
  EC50: > 44 µM

## CNc1ncnc2c1c(-c1ccco1)cn2[C@@H]1O[C@H](CO)[C@@H](O)[C@H]1O [Compound 3a, 5-(Furan-2-yl)-4-methylamino-7-(β-D-ribofuranosyl)-7H-pyrrolo[2,3-d]pyrimidine]
CCRF-CEM
  IC50: 0.18 µM
CEM-DNR-bulk
  IC50: > 20 µM
K562-TAX
  IC50: 15.1 µM
HCT116
  IC50: 0.23 µM
HCT116p53-/-
  IC50: 0.44 µM
MRC-5
  IC50: 90.8 µM
HepG2
  IC50: 0.85 µM
[1]
  CC50: > 44 µM
[2]
  EC50: 0.14 µM

## CNc1ncnc2c1c(-c1ccoc1)cn2[C@@H]1O[C@H](CO)[C@@H](O)[C@H]1O [Compound 3b, 5-(Furan-3-yl)-4-methylamino-7-(β-D-ribofuranosyl)-7H-pyrrolo[2,3-d]pyrimidine]
CCRF-CEM
  IC50: > 20 µM
CEM-DNR-bulk
  IC50: > 20 µM
K562-TAX
  IC50: > 20 µM
HCT116
  IC50: > 20 µM
HCT116p53-/-
  IC50: > 20 µM
MRC-5
  IC50: > 100 µM
HepG2
  IC50: > 20 µM
[1]
  CC50: > 44 µM
[2]
  EC50: > 44 µM

## CNc1ncnc2c1c(-c1cccs1)cn2[C@@H]1O[C@H](CO)[C@@H](O)[C@H]1O [Compound 3c, 4-Methylamino-7-(β-D-ribofuranosyl)-5-(thiophen-2-yl)-7H-pyrrolo[2,3-d]pyrimidine]
CCRF-CEM
  IC50: > 20 µM
CEM-DNR-bulk
  IC50: > 20 µM
K562-TAX
  IC50: > 20 µM
HCT116
  IC50: > 20 µM
HCT116p53-/-
  IC50: > 20 µM
MRC-5
  IC50: > 100 µM
HepG2
  IC50: > 20 µM
[1]
  CC50: > 44 µM
[2]
  EC50: > 44 µM

## CNc1ncnc2c1c(-c1ccsc1)cn2[C@@H]1O[C@H](CO)[C@@H](O)[C@H]1O [Compound 3d, 4-Methylamino-7-(β-D-ribofuranosyl)-5-(thiophen-3-yl)-7H-pyrrolo[2,3-d]pyrimidine]
CCRF-CEM
  IC50: > 20 µM
CEM-DNR-bulk
  IC50: > 20 µM
K562-TAX
  IC50: > 20 µM
HCT116
  IC50: > 20 µM
HCT116p53-/-
  IC50: > 20 µM
MRC-5
  IC50: > 100 µM
HepG2
  IC50: > 20 µM
[1]
  CC50: > 44 µM
[2]
  EC50: > 44 µM

## CNc1ncnc2c1c(-c1ccccc1)cn2[C@@H]1O[C@H](CO)[C@@H](O)[C@H]1O [Compound 3e, 4-Methylamino-5-phenyl-7-(β-D-ribofuranosyl)-7H-pyrrolo[2,3-d]pyrimidine]
CCRF-CEM
  IC50: > 20 µM
CEM-DNR-bulk
  IC50: > 20 µM
K562-TAX
  IC50: > 20 µM
HCT116
  IC50: > 20 µM
HCT116p53-/-
  IC50: > 100 µM
MRC-5
  IC50: > 100 µM
HepG2
  IC50: > 20 µM
[1]
  CC50: > 44 µM
[2]
  EC50: > 44 µM

## CNc1ncnc2c1c(-c1cc3ccccc3o1)cn2[C@@H]1O[C@H](CO)[C@@H](O)[C@H]1O [Compound 3f, 5-(Benzofuran-2-yl)-4-methylamino-7-(β-D-ribofuranosyl)-7H-pyrrolo[2,3-d]pyrimidine]
CCRF-CEM
  IC50: > 20 µM
CEM-DNR-bulk
  IC50: > 20 µM
K562-TAX
  IC50: > 20 µM
HCT116
  IC50: > 20 µM
HCT116p53-/-
  IC50: > 20 µM
MRC-5
  IC50: 75.3 µM
HepG2
  IC50: > 20 µM
[1]
  CC50: > 44 µM
[2]
  EC50: 13.6 µM

## C#Cc1cn([C@@H]2O[C@H](CO)[C@@H](O)[C@H]2O)c2ncnc(NC)c12 [Compound 3g, 5-Ethynyl-4-methylamino-7-(β-D-ribofuranosyl)-7H-pyrrolo[2,3-d]pyrimidine]
CCRF-CEM
  IC50: > 20 µM
CEM-DNR-bulk
  IC50: 18.5 µM
K562-TAX
  IC50: 1.38 µM
HCT116
  IC50: > 20 µM
HCT116p53-/-
  IC50: > 20 µM
MRC-5
  IC50: > 100 µM
HepG2
  IC50: > 15 µM
[1]
  CC50: > 44 µM
[2]
  EC50: > 44 µM

## CN(C)c1ncnc2c1c(-c1ccco1)cn2[C@@H]1O[C@H](CO)[C@@H](O)[C@H]1O [Compound 4a, 4-Dimethylamino-5-(furan-2-yl)-7-(β-D-ribofuranosyl)-7H-pyrrolo[2,3-d]pyrimidine]
CCRF-CEM
  IC50: 2.91 µM
CEM-DNR-bulk
  IC50: 3.14 µM
K562-TAX
  IC50: 1.28 µM
HCT116
  IC50: 0.25 µM
HCT116p53-/-
  IC50: 0.32 µM
MRC-5
  IC50: > 100 µM
HepG2
  IC50: > 15 µM
[1]
  CC50: > 44 µM
[2]
  EC50: 1.35 µM
